SMILES strings stand for the structures.

As a reminder, the logP is a log measure of how a compound divides between an organic and an aqueous phase.

`COC(=O)C1(S(=O)(=O)c2ccc(Cl)cc2)CC1` yielded a logP of 2.03.

`CC(C)OC(=O)C1(S(=O)(=O)c2ccc([N+](=O)[O-])cc2)CCC1` yielded a logP of 2.36.

In turn, `CCOC(=O)C1(S(=O)(=O)c2ccc(C)cc2)CCC1` came in with a logP of 2.31.

In the case of `CCOC(=O)C1(S(=O)(=O)c2ccc(C)cc2)CC1`, the logP is 2.23.

As for `CC(C)(C)OC(=O)C1(S(=O)(=O)c2ccc(Cl)cc2)CC1`, the logP came out at 2.68.

`COC(=O)C1(S(=O)(=O)c2ccccc2)CC1`: the logP came to 1.43.

For `COC(=O)C1(S(=O)(=O)c2ccc(C)cc2)CC1`, the logP worked out at 1.77.

`Cc1ccc(S(=O)(=O)C2(C(=O)OC(C)C)CCC2)cc1` had a logP of 2.78.

As to `COC(=O)C1(S(=O)(=O)c2ccccc2)CCCC1`, the logP was 1.98.

Compound `COC(=O)C1(S(=O)(=O)c2ccc(Br)cc2)CCCC1` gave a logP of 2.73.

On to `COC(=O)C1(S(=O)(=O)c2ccccc2)CCC1`, for which the logP was 1.63.

On to `COC(=O)C1(S(=O)(=O)c2ccc(Cl)cc2)CCC1`, for which the logP came to 2.28.

In turn, `COC(=O)C1(S(=O)(=O)c2ccccc2)CCCCC1` showed a logP of 2.3.

In the case of `CC(C)OC(=O)C1(S(=O)(=O)c2ccc(Cl)cc2)CCCC1`, the logP was found to be 3.16.

Take `CC(C)OC(=O)C1(S(=O)(=O)c2ccc([N+](=O)[O-])cc2)CC1`: the logP was 2.05.

On to `COC(=O)C1(S(=O)(=O)c2ccc(Br)cc2)CCC1`, for which the logP stood at 2.45.

In the case of `COC(=O)C1(S(=O)(=O)c2ccc(Br)cc2)CCCCC1`, the logP came to 2.94.

Compound `COC(=O)C1(S(=O)(=O)c2ccc(Br)cc2)CC1` returned a logP of 2.32.

Take `CC(C)OC(=O)C1(S(=O)(=O)c2ccc([N+](=O)[O-])cc2)CCCCC1`: the logP came out at 2.84.

`Cc1ccc(S(=O)(=O)C2(C(=O)OC(C)C)CC2)cc1` displayed a logP of 2.52.

On to `COC(=O)C1(S(=O)(=O)c2ccc([N+](=O)[O-])cc2)CC1`, for which the logP was determined as 1.33.

`CC(C)OC(=O)C1(S(=O)(=O)c2ccc(Cl)cc2)CC1`: the logP was determined as 2.64.

The compound `CC(C)OC(=O)C1(S(=O)(=O)c2ccc([N+](=O)[O-])cc2)CCCCCC1` displayed a logP of 3.41.

These data come from the OPERA property sets (Mansouri et al. 2018).
